The numbers were not newly measured in patent publication US20100150991A1, “Combination Wound Therapy” (priority 2008, published 2010), which cites them from elsewhere.

For data set [1] the following is noted: topical application of gaseous nitric oxide.
In data set [2] the test system is neutrophil adhesion, platelets, and pro-inflammatory cutokines in the circulating blood. As to conditions: doses of less than 80 ppm; by reducing neutrophil adhesion, platelets and pro-inflammatory cytokines in circulating blood.
The next data set deals with acute and chronic wounds. To be noted: topical CO2, acute and chronic wounds; Wollina et al 2004.
For data set [3] the following is noted: CO2 insufflation compared with air insufflation; van der Linden and Persson 2003.

Turning to `[N]=O` [NO, nitric oxide], the “half life of NO in contact with tissues” value in data set [1] is 6 min. In addition, the anti-inflammatory effect entry in data set [2] is “anti-inflammatory effect”.

With `O=C=O` [CO2, carbon dioxide], the “clinical evidence in wounds” value in the data set with acute and chronic wounds was “increased granulation tissue and reduction of discharge and malodor”. For the same molecule, the rates of infection result in data set [3] is reported as “lower rates of infection than air insufflation”.
